Results as given in patent US20250206779A1, “ANGIOTENSIN-(1-9) ANALOGUE BASED ON D AMINO ACIDS, PHARMACEUTICAL COMPOSITIONS AND USES THEREOF” (UNIVERSIDAD DE CHILE, priority 2021, published 2025).
One block for each compound: values may come before it. Where a SMILES comes first, the peptide text is derived from it. Where no end group is shown, it is not given here. [ ]: non-standard residue; d: D form.

Legend:
[1] = test system: adult rat cardiac fibroblasts; assay: Cardiac fibroblast proliferation, cell count in Neubauer chamber; type: cell-based; settings: DMEM F-12 5% FBS, 24 h, trypan blue cell count
Description: Male Sprague-Dawley rats (250-300 g) were anesthetized with ketamine-xylazine (66 and 1.6 mg/kg i.p., respectively). Adult rat cardiac fibroblasts were isolated by retrograde aortic perfusion. Briefly, hearts were digested with collagenase type B solution for 1 h, and cells were centrifuged at 500 rpm for 2 min. The supernatant, mainly adult rat cardiac fibroblasts, was centrifuged at 1000 rpm for 10 min, resuspended in Dulbecco's Modified Eagle Medium: Nutrient Mixture F-12 (DMEM F-12) plus 15% fetal bovine serum (FBS) and then seeded in nontreated culture dishes during 3 h. Cells were washed with phosphate buffered saline to eliminate debris and nonadherent cells. Adult rat cardiac fibroblasts were used at passage one and seeded on 60 mm cell culture dishes in DMEM F-12 plus 10% FBS and incubated at […] for 3 h. To synchronize cells, they were washed and incubated in DMEM F-12 (without serum, 0% FBS) for 24 h before experimentation. Cell proliferation was determined in cardiac fibroblasts incubated for 24 h with and without retro-inverse angiotensin-(1-9) in DMEM F-12 5% FBS. Cells were trypsinized and cell number was determined using trypan blue method in a Neubauer chamber.

[2] = test system: cardiac myocytes isolated from neonatal Sprague-Dawley rat ventricles; assay: Norepinephrine-induced cardiomyocyte hypertrophy, western blot of β-MHC and ANP; type: cell-based; settings: 1, 10 or 100 μM peptide, 10 μM norepinephrine
Description: Cardiac myocytes were isolated from neonatal Sprague-Dawley rat ventricles. Cardiac myocytes were plated at 70% final density in gelatin-coated wells (12-well plates) or in 60-mm Petri dishes and maintained at 37° C. in a humidified atmosphere of 5% CO2/95% air for 24 h in Dulbecco's Modified Eagle's medium [(DMEM)/M199](4:1) containing 10% fetal bovine serum and 5% fetal calf serum. Serum was withdrawn 24 h before preincubation with 1, 10 or 100 μM retro-inverse angiotensin-(1-9) for 1 h; then, 10 μM norepinephrine (Sigma, St Louis, Missouri, USA) were added and the cultures were incubated for 24 h. Then cells were washed with PBS at 4° C. and then cells were lysed with 50 μL of RIPA lysis buffer (Tris-HCl 10 mM pH 7.4, EDTA 5 mM, NaCl 50 mM, deoxycholic acid 1%, Triton X-100 1% v/v) supplemented with phosphatase and protease inhibitors (Roche). After centrifugation at 12,000 r.p.m. for 15 min at 4° C., the supernatat was recovered; total protein content was determined by using Bradford (BioRad protein assay, BioRad, Hercules, CA, USA). Proteins were denatured in SDS-PAGE 4× buffer and resolved in 12% PAGE-SDS. After electrotransference, beta-myosin heavy chain (β-MHC) and atrial natriuretic peptide (ANP) were used as hypertrophic markers. β-tubulin was used as loading control. As expected, norepinephrine 10 μM for […], a cardiomyocyte hypertrophy inducer, triggered β-MHC and ANP increase (FIG. 3).

[3] = Stability in human serum determined by HPLC; type: in vitro ADME; settings: 37° C.
Description: The retro-inverse peptides were dissolved in PBS to obtain a final concentration of 1 mM. From this stock, an aliquot of 50 μL was taken and diluted to 450 μL of human serum (Sigma Aldrich from human male AB plasma, USA origin, sterile-filtered) at 37° C. under agitation, to obtain an initial concentration of […] and incubated for 48 h. Aliquots of 50 μL were extracted at 0, 5, 10 min and 1, 3, 6, 24 and 48 h and added to 200 μL of methanol at 4° C. for 30 min to precipitate serum proteins. The samples were then centrifuged at 13,000 g in Hermle Cooling Centrifuge Z 326 K 311.00 V01 at 4° C. for 30 min. The supernatants (approximately 200 μL) were obtained, placed in vials, and then analyzed by HPLC. All analyzes were performed on the Perkin Elmer auto sampler flexo HPLC, using a reverse phase 4.6×100 mm column with a particle size of […] (Waters XBridge Peptide BEH C18 Column). Mobile phase A was 100% acetonitrile and phase B was TFA 0.0004% in Milli-Q water. The initial composition of eluent was 5% A and 95% B for 1 min and then a linear gradient to reach 100% A in 19 min and then return to the initial composition in 4 min, with a total run time of 25 min. The eluent flow was 0.9 mL/min and the temperature of the column was adjusted to 26° C. L measurement was performed at a UV signal of 220 nm wavelength. Where 50 μL was injected per sample. Peptides were identified based on their retention time in the respective chromatogram obtained in the Chromera-HPLC flexar program.

Compound: O=c1[nH]c(=O)n([C@H]2C[C@H](O)[C@@H](CO)O2)cc1Br [bromodeoxyuridine, reference compound]
fibroblast proliferation [1]: comparable to bromodeoxyuridine

degradation after incubation with human serum ([3]; 24 h incubation): no significant degradation
Compound: CC[C@@H](C)[C@@H](NC(=O)[C@@H](Cc1c[nH]cn1)NC(=O)[C@H]1CCCN1C(=O)[C@@H](Cc1ccccc1)NC(=O)[C@H](N)Cc1c[nH]cn1)C(=O)N[C@H](Cc1ccc(O)cc1)C(=O)N[C@@H](C(=O)N[C@H](CCCNC(=N)N)C(=O)N[C@H](CC(=O)O)C(N)=O)C(C)C [retro-inverse angiotensin-(1-9) amide, ^DH^DF^DP^DH^DI^DY^DV^DR^DD-CONH2] (H-[dH][dF][dP][dH][dI][dY][dV][dR][dD]-NH2)
increase of ANP induced by norepinephrine [2]: blocked

degradation after incubation with human serum ([3]; 3 h incubation): completely degraded
Compound: DRVYIHPFH [angiotensin-(1-9), Asp-Arg-Val-Tyr-Ile-His-Pro-Phe-His]
